Results: article PMC10348545 (PLOS Pathogens, 2023)

Biological target: T1, CbMip (Coxiella burnetii, UniProt P51752)
T1 construct: gene mip
Test: biochemical

T1 sequence (P51752 22-230 limits assumed): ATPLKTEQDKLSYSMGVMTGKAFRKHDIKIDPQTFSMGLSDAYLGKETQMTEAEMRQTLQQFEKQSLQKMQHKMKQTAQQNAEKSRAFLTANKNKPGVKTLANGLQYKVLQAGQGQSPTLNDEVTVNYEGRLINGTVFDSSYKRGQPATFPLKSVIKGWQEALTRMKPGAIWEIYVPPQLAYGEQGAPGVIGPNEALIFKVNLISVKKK

Compound | Ki
O=C(O[C@@H](Cc1ccccc1)C(=O)NCc1cccnc1)C1CCCCN1S(=O)(=O)Cc1ccccc1 (some centres unmarked) [ANCH37] | 4.6 ± 0.9 µM
O=C(NCCOC(=O)[C@@H]1CCCCN1S(=O)(=O)Cc1ccccc1)c1cccnc1 [SF235] | 18 ± 4 µM
